Data on 18 compounds can be found in patent publication US20190031618A1, “BENZIMIDAZOLE DERIVATIVES USEFUL AS CB-1 INVERSE AGONISTS” (Janssen Pharmaceutica NV, priority 2015, published 2019).

Where two headings read alike, the source gives them in different places.

Data set [1] has as its target Human CB2R (Cannabinoid receptor 2) (Homo sapiens, UniProt P34972). Description: CB-2 in vitro cAMP (HTRF) assay. Conditions: HEK cells, cAMP HTRF, 250 nM forskolin; mean where tested more than once; read-out: CB2 HEK_cAMP EC50. The format is cell-based. Summed up: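 HEK-293 cells stably expressing receptor, plated overnight at 4E5 cells/mL, tested with 1/3 serial dilutions of compound in HBSS/HEPES/BSA buffer with 0.5 mM IBMX and forskolin (diluted to 1.5 μM in buffer). cAMP measured by competitive HTRF immunoassay (d2-cAMP, cryptate anti-cAMP), signal inversely proportional to cAMP.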

A short description of data set [2]: Mouse Fast PK/BBB: plasma and brain concentration. The format is in vivo, Male C57bl/6j mice. Conditions: mice; for Brain Mean Conc. ± Std. Dev: 1 hr; for concentration at 1 h: male, C57bl/6j, mouse, brain, read-out: Brain Mean Conc. ± Std. Dev.

Sequence of Human CB2R (Cannabinoid receptor 2) (P34972 whole entry): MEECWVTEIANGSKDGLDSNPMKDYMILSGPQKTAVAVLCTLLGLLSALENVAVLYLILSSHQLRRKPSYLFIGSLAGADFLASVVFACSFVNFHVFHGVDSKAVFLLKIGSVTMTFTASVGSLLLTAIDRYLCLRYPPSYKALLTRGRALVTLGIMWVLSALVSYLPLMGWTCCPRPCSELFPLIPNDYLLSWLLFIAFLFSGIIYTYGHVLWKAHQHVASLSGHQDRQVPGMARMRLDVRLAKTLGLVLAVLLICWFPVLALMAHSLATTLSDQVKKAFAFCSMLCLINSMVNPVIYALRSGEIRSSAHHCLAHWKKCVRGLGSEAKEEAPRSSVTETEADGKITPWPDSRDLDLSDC

Consider `O=C(O)c1cccc(S(=O)(=O)N2CCC(n3c(C4CC4)nc4ccc(C(c5ccc(Cl)cc5)c5ccc(Cl)cc5)cc43)CC2)c1` [Example 242], for which, in data set [1], the EC50 (commonly the concentration needed to bring the measured effect to its halfway point) came out at 5.69 µM. Moreover, in data set [2] (dose 20 mg/kg oral), the “Brain Mean Conc. ± Std. Dev” value is “BLOQ ± NA”.

Regarding `O=C(O)c1cccc(CN2CCC(n3c(C4CC4)nc4ccc(C(c5ccc(Cl)cc5)c5ccc(Cl)cc5)cc43)CC2)n1` [Example 125], the EC50 in data set [1] was 9.9 µM. Moreover, the “Brain Mean Conc. ± Std. Dev” value in data set [2] (dose 30 mg/kg oral) is “BLOQ ± NA”.

`O=C(O)c1ccc(CN2CCC(n3c(C4CC4)nc4ccc(C(c5ccc(Cl)cc5)c5ccc(Cl)cc5)cc43)CC2)o1` [Example 129]: the concentration giving a half-maximal response (EC50) in data set [1] is greater than 10 µM. Further, in data set [2] (dose 30 mg/kg oral), the “Brain Mean Conc. ± Std. Dev” value is “BLOQ ± NA”.

`CCc1nc2ccc(C(c3ccc(Cl)cc3)c3ccc(Cl)cc3)cc2n1C1CCN(S(=O)(=O)C(F)(F)F)CC1` [Example 328]: the EC50 in data set [1] is greater than 14 µM. In addition, the concentration at 1 h in data set [2] (dose 20 mg/kg oral) was found to be 39.1 ± 1.95 ng/mL.

Turning to `O=C(O)c1ccc(S(=O)(=O)N2CCC(n3c(C4CC4)nc4ccc(C(c5ccc(Cl)cc5)c5ccc(Cl)cc5)cc43)CC2)o1` [Example 232], the EC50 in data set [1] was 8.86 µM. In addition, in data set [2] (dose 30 mg/kg oral), the “Brain Mean Conc. ± Std. Dev” value is “BLOQ ± NA”.

For `CCc1nc2ccc(C(c3ccc(Cl)cc3)c3ccc(Cl)cc3)cc2n1CC1CCN(S(=O)(=O)C(F)(F)F)CC1` [Example 315], the EC50 in data set [1] stood at 5.4 µM. The concentration at 1 h in data set [2] (dose 20 mg/kg oral) is 33.8 ± 5 ng/mL.

As to `O=C(O)c1ccc(S(=O)(=O)N2CCC(n3c(C4CC4)nc4ccc(C(c5ccc(Cl)cc5)c5ccc(Cl)cc5)cc43)CC2)cc1` [Example 276], the EC50 in data set [1] came out at 2.61 µM. For the same compound, the “Brain Mean Conc. ± Std. Dev” value in data set [2] (dose 20 mg/kg oral) is “BLOQ ± NA”.

Turning to `O=S(=O)(N1CCC(n2c(C3CC3)nc3ccc(C(c4ccc(Cl)cc4)c4ccc(Cl)cc4)cc32)CC1)C(F)(F)F` [Example 335], in data set [1], the EC50 was greater than 10 µM. Also, the concentration at 1 h in data set [2] (dose 20 mg/kg oral) was found to be 53.3 ± 14 ng/mL.

As for `COc1ccc(C(c2ccc(OC)cc2)c2ccc3nc(C4CCC4)n(C4CCN(S(=O)(=O)C(F)(F)F)CC4)c3c2)cc1` [Example 320], in data set [1], the EC50 is greater than 10 µM. Also, the concentration at 1 h in data set [2] (dose 20 mg/kg oral) is 122 ± 18.1 ng/mL.

With `O=S(=O)(N1CCC(Cn2c(C3CC3)nc3ccc(C(c4ccc(Cl)cc4)c4ccc(Cl)cc4)cc32)CC1)C(F)(F)F` [Example 316], the EC50 in data set [1] came out at 3.86 µM. Besides, in data set [2] (dose 20 mg/kg oral), the concentration at 1 h was found to be 22.9 ± 2.7 ng/mL.

As to `CCc1nc2ccc(C(c3ccc(Cl)cc3)c3nccs3)cc2n1C1CCN(S(=O)(=O)C(F)(F)F)CC1` (stereo not drawn) [Example 400], in data set [1], the EC50 was greater than 10 µM. Also, the concentration at 1 h in data set [2] (dose 20 mg/kg oral) was 362 ± 36.9 ng/mL.

With `O=C(O)c1csc(S(=O)(=O)N2CCC(n3c(C4CC4)nc4ccc(C(c5ccc(Cl)cc5)c5ccc(Cl)cc5)cc43)CC2)c1` [Example 221], in data set [1], the EC50 came out at 3.3 µM. Moreover, in data set [2] (dose 20 mg/kg oral), the “Brain Mean Conc. ± Std. Dev” value is reported as “BLOQ ± NA”.

Consider `O=C(O)c1cc(F)cc(CN2CCC(n3c(C4CC4)nc4ccc(C(c5ccc(Cl)cc5)c5ccc(Cl)cc5)cc43)CC2)c1` [Example 89], for which, in data set [1], the EC50 was found to be 7.9 µM. The concentration at 1 h in data set [2] (dose 30 mg/kg oral) came out at 92.6 ± 20.4 ng/mL.

For `O=C(O)c1ccc(CN2CCC(n3c(C4CC4)nc4ccc(C(c5ccc(Cl)cc5)c5ccc(Cl)cc5)cc43)CC2)nc1` [Example 124], the EC50 in data set [1] was greater than 10 µM. In addition, the “Brain Mean Conc. ± Std. Dev” value in data set [2] (dose 30 mg/kg oral) is recorded as “BLOQ ± NA”.

`O=C(O)c1cccc(CN2CCC(n3c(C4CC4)nc4ccc(C(c5ccc(Cl)cc5)c5ccc(Cl)cc5)cc43)CC2)c1` [Example 148]: the EC50 in data set [1] turned out to be 4.93 µM. In addition, the concentration at 1 h in data set [2] (dose 30 mg/kg oral) came out at 334 ± 108 ng/mL.

`O=S(=O)(c1cccc(O)c1)N1CCC(n2c(C3CC3)nc3ccc(C(c4ccc(Cl)cc4)c4ccc(Cl)cc4)cc32)CC1` [Example 259]: in data set [1], the EC50 is greater than 10 µM. For the same compound, in data set [2] (dose 20 mg/kg oral), the “Brain Mean Conc. ± Std. Dev” value was “BLOQ ± NA”.

In the case of `O=C(O)c1ccc(F)c(CN2CCC(n3c(C4CC4)nc4ccc(C(c5ccc(Cl)cc5)c5ccc(Cl)cc5)cc43)CC2)c1` [Example 92], in data set [1], the EC50 came out at 5.19 µM. Further, the concentration at 1 h in data set [2] (dose 30 mg/kg oral) stood at 72.4 ± 11.1 ng/mL.

Turning to `O=S(=O)(N1CCC(n2c(C3CCC3)nc3ccc(C(c4ccc(Cl)cc4)c4ccc(Cl)cc4)cc32)CC1)C(F)(F)F` [Example 318], the EC50 in data set [1] was greater than 10 µM. Also, the concentration at 1 h in data set [2] (dose 20 mg/kg oral) was determined as 57.8 ± 14.8 ng/mL.
